According to patent US20220056014A1, “PHENYLPYRROLIDINE COMPOUND AND USE THEREOF” (WUHAN HUMANWELL INNOVATIVE DRUG RESEARCH AND DEVELOPMENT …, priority 2018, published 2022):
Like-named read-outs stand apart in the source and are kept apart here.

Assays:
[1] = system: LPS-stimulated TNF-α release; assay: LPS-stimulated TNF-α release in mice; format: in vivo, Balb/c mice; conditions: Mus musculus, oral 50 mg/kg (positive control 100 mg/kg), 1 mg/kg LPS i.p.
Experimental: 18 Balb/c mice (6 to 8 weeks) were randomly assigned to a blank group, a model group, and an administration group, 6 mice in each group. A vehicle (blank group, model group) or 50 mg/kg compound (administration group, where the dose for the positive control group was 100 mg/kg) was orally administrated. 30 min after the oral administration, PBS (blank group) or 1 mg/kg LPS (model group and administration group) was injected intraperitoneally. 90 min or 120 min after the intraperitoneal injection, blood was collected from the hearts of the mice, and still stood at 2-8° C. for 4 hours, and centrifuged at 5000 rpm for 10 min to collect the serum. The serum was stored at −80° C. for testing.
The serum TNF-α level was tested using a mouse TNF-α detection kit (Mouse TNFa ELISA kit: Biolegend, Cat: 430904). The inhibitory activity of the compounds against the TNF-α release was calculated based on the serum TNF-α level.
Inhibitory activity of compound %={1−(TNFα concentration of administration group−TNFα concentration of blank group)/(TNFα concentration of model group−TNFα concentration of blank group)}×100%.

[2] = system: LPS-induced secretion of TNFα in human PBMCs; assay: LPS-induced secretion of TNFα in human PBMCs; format: cell-based; conditions: Homo sapiens, PBMC, 24 h, LPS 10 ng/ml
Experimental: Extraction process of peripheral blood mononuclear cells (PBMCs): one unit of human peripheral blood concentrate (concentrated from 200 cc peripheral blood) was sucked and added with 0.9% saline until a total volume reached 120 ml, and mixed homogenously. 15 ml Lymphoprep™ was added into 50 ml centrifuge tube, and then 30 ml of diluted blood concentrate was carefully and slowly added thereto, allowing the diluted blood to be stacked on the layered solution and preventing the diluted blood from being mixed into the separated solutions or breaking the surface of the separated solution, wherein a ratio of Lymphoprep™ to the diluted blood was 1:2. The centrifuge tubes were balanced and placed in a horizontal centrifuge (eppendorf, 5810R), and centrifuged at 800 g and 20° C. for 20 min. The centrifuge tubes were carefully taken out. PBMCs were absorbed by directly inserting the Pasteur pipette deep into the buffy coat. The obtained PBMCs were gently pipetted with 3 times the volume of 0.9% normal saline or PBS (without calcium or magnesium ions) to mix homogenously. After that, the cells were centrifuged at 250 g and 20° C. for 10 min, the supernatant was removed to remove the platelets remaining in the cell suspension. The obtained cell pellet was resuspended in 20 ml of PBS, and counted using trypan blue.
Compound screening by using PBMCs: the PBMC suspension obtained above was centrifuged to remove PBS, then resuspended in complete medium (RPMI1640+10% FBS+1% P/S) and counted. 100 μL/well of the cells was seeded at 5×10^4/well. Each of the compounds to be screened was prepared as 4 times the final concentration, which was added to the cells at 50 μL/well. The compound was pre-incubated for 30 min in advance of being added to the cells. Meanwhile, control wells to which the compound was not added were provided. A final stimulation concentration of LPS was 10 ng/ml, and LPS was formulated as 4 times the final stimulation concentration, and added to the cells at 50 μL/well. Meanwhile, control wells, i.e., wells without LPS were provided. The cells were incubated for 24 h, and 10% of the supernatant was collected for detection. The obtained supernatant was detected using Invitrogen's Human TNF-α kit (REF: 88-7346-88).

PDE4D = target: T1, PDE4D (Homo sapiens, UniProt Q08499); assay: PDE4D enzyme activity assay (PDE-Glo Phosphodiesterase Assay Kit); format: biochemical
T1 construct: purchased Enzo Life Sciences BML-SE523-0020
T1 sequence (Q08499 whole entry): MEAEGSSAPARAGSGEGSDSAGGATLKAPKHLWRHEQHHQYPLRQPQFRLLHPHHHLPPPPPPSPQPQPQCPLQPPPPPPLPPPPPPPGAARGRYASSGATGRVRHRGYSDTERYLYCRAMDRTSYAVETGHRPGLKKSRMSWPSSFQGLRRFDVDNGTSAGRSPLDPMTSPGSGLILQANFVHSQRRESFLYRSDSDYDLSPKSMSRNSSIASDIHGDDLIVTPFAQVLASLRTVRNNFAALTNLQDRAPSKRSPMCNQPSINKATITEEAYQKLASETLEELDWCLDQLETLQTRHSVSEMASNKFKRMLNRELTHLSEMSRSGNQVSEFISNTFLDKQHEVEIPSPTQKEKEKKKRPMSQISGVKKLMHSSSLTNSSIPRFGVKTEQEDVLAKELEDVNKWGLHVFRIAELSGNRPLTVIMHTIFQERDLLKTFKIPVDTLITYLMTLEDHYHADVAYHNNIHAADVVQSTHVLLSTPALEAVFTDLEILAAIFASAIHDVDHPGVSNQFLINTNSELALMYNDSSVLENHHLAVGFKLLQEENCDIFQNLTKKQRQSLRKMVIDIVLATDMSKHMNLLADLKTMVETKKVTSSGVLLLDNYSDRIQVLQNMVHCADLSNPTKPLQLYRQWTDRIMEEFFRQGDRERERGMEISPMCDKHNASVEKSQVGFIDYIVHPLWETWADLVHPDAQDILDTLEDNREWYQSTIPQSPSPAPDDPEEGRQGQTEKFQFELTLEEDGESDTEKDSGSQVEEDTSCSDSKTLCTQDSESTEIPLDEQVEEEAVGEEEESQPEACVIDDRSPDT
Experimental: (§1) For the previously synthesized compounds, the inhibitory activity of the compounds against PDE4B and against PDE4D was tested by using PDE-Glo Phosphodiesterase Assay Kit (promega, V1361). In short, in accordance with the instructions of the kit, a concentrated stock solution (10 mM) the compound to be tested was first prepared with DMSO solvent, and the concentrated stock solution was then diluted into 10× working solutions with a Reaction buffer provided in the kit. With the Reaction buffer, on ice, PDE4B enzyme (Enzo Life Sciences, BML-SE522-0020) was diluted to a concentration of 1 ng/μl to obtain a PDE4B enzyme working solution, and PDE4D enzyme (Enzo Life Sciences, BML-SE523-0020) was diluted to a concentration of 4 ng/μl to obtain a PDE4D enzyme working solution. 1.5 μl of the PDE4B working solution (or PDE4D working solution) and 1 μl of the compound working solution were added to wells of 384-well plate (Corning, CLS3707), and incubated with shaking at room temperature for 5 min, followed by adding 2.5 μl of cAMP (in Reaction buffer, 2 μM) per well, incubating with shaking at room temperature for 20 min. 2.5 μl/well of 1× Termination Buffer, and then 2.5 μl/well of 1× Detection Buffer were added, and further incubated with shaking at room temperature for 20 min. 10 μl/well of 1× Kinase-Glo was added, and the plate was incubated with shaking at room temperature for 10 min, and bioluminescence was measured with PheraStar instrument. The experimental results were plotted with GraphPad Prism software, and fitted to calculate IC50 of each compound.

[3] = Mouse pharmacokinetic test; format: in vivo, CD-1 mice; conditions: male, CD-1, plasma, oral gavage 10 mg/kg
Experimental: (§2) In the rat pharmacokinetic test, 3 male SD rats (180-240 g) were fasted overnight, and orally administered with 10 mg/kg of compound to be tested. Blood was collected before the administration, and 15 min, 30 min, 1 h, 2 h, 4 h, 8 h, and 24 h hours after the administration. The blood sample was centrifuged at 8000 rpm for 6 min at 4° C., and the plasma was collected and stored at −20° C. The plasma collected at each time point was added and mixed with 3-5 times the amount of acetonitrile solution containing an internal standard, vortexed for 1 min, centrifuged at 13,000 rpm for 10 min at 4° C. The supernatant was taken and mixed with 3 times the amount of water, and an appropriate amount of the mixture was taken for LC-MS/MS analysis. The main pharmacokinetic parameters were analyzed with WinNonlin 7.0 software non-compartmental model.
(§3) In the mouse pharmacokinetic test, 9 male CD-1 mice (20-25 g) were fasted overnight, and orally administered with 10 mg/kg of the compound to be tested. Bloods of 3 mice were collected at each time point, and bloods of 9 mice were alternately collected in total. In the pharmacokinetic test in canine, 3 male beagle dogs (8-10 kg) were fasted overnight, and orally administered with 5 mg/kg of the compound to be test. In the pharmacokinetic test of cynomolgus monkeys, 3 male cynomolgus monkeys (4 to 6.5 kg) were fasted overnight, and orally administered 20 mg/kg of the compound to be test. The remaining processes are the same as those of the rat pharmacokinetic test.

PDE4B = target: T2, PDE4B (Homo sapiens, UniProt Q07343); assay: PDE4B enzyme activity assay (PDE-Glo Phosphodiesterase Assay Kit); format: biochemical; conditions: for IC50 (PDE4D)/IC50 (PDE4B): selectivity ratio
T2 construct: purchased Enzo Life Sciences BML-SE522-0020
T2 sequence (Q07343 whole entry): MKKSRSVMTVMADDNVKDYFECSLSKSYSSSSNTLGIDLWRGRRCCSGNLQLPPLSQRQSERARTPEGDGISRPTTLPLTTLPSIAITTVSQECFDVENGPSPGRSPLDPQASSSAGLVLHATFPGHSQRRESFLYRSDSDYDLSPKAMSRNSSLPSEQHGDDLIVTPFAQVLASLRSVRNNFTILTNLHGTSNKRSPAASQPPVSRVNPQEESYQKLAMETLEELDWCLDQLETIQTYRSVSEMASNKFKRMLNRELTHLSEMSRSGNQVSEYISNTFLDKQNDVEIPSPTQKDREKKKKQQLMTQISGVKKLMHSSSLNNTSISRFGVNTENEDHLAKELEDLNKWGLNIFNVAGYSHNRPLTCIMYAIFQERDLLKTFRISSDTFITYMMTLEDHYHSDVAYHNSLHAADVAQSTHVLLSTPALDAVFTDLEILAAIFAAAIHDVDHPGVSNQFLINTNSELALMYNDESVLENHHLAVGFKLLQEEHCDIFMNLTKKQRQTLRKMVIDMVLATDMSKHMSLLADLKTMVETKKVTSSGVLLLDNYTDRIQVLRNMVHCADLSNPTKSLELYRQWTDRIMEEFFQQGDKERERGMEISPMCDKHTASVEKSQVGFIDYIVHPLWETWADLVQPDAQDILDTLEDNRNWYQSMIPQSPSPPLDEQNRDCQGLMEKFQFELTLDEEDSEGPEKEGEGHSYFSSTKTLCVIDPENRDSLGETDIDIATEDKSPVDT
Experimental: as §1

Rat pharmacokinetic test = format: in vivo, SD rats; conditions: male, Sprague-Dawley (SD), plasma, oral gavage 10 mg/kg
Experimental: as §2

[4] = Pharmacokinetic test in canine; format: in vivo, beagle dogs; conditions: male, beagle, dog, plasma, oral gavage 5 mg/kg
Experimental: as §2, §3

[5] = 1.5 h, blood 90 min after LPS, read-out: Inhibition rate (%) of LPS-stimulated TNF-α release, 90 min
[6] = 2 h, blood 120 min after LPS, read-out: Inhibition rate (%) of LPS-stimulated TNF-α release, 120 min

IC50 (PDE4D)	AUC(0-t) [3]	Cmax [3]	Tmax [3]	IC50 (PDE4B)	IC50 (PDE4D)/IC50 (PDE4B) (PDE4B)	AUC(0-t) (Rat pharmacokinetic test)	Cmax (Rat pharmacokinetic test)	Tmax (Rat pharmacokinetic test)	AUC(0-t) [4]	Cmax [4]	Tmax [4]	Structure (SMILES)	inhibition in vivo at 50 mg/kg [1, 5]	inhibition in vivo at 50 mg/kg [1, 6]	IC50 [2]
0.67 nM	311 ng·h/mL	339 ng/mL	15 min	0.91 nM	0.74	23.5 ng·h/mL	22.5 ng/mL	19.8 min	–	–	–	COc1ccc([C@@H]2CN(C(=O)[C@@H](O)CO)C[C@@]2(C)[C@@H](C)O)cc1OC1CN(c2cc(C#N)c(C)cn2)C1 [Compound 001, 2-(3-(5-((3S,4S)-1-((S)-2,3-dihydroxypropanoyl)-4-((R)-1-hydroxyethyl)-4-methylpyrrolidin-3-yl)-2-methoxyphenoxy)azetidin-1-yl)-5-methylisonicotinonitrile]	53.6%	39.5%	0.36 nM
0.16 nM	386 ng·h/mL	355 ng/mL	15 min	0.43 nM	0.37	103 ng·h/mL	41.6 ng/mL	19.8 min	534 ng·h/mL	198 ng/mL	60 min	COc1ccc([C@@H]2CN(C(=O)[C@@H](O)CO)C[C@@]2(C)[C@@H](C)O)cc1OC1CN(c2cc(Cl)c(C)cn2)C1 [Compound 002, (S)-1-((3S,4S)-4-(3-((1-(4-chloro-5-methylpyridin-2-yl)azetidin-3-yl)oxy)-4-methoxyphenyl)-3-((R)-1-hydroxyethyl)-3-methylpyrrolidin-1-yl)-2,3-dihydroxypropan-1-one]	–	66.2%	0.56 nM
3.58 nM	625 ng·h/mL	298 ng/mL	30 min	1.46 nM	2.45	443 ng·h/mL	133 ng/mL	15 min	1760 ng·h/mL	534 ng/mL	30 min	COc1ccc([C@@H]2CN(C(=O)[C@@H](O)CO)C[C@@]2(C)[C@@H](C)O)cc1OC1CN(c2cc(C)c(C)cn2)C1 [Compound 008, (S)-1-((3S,4S)-4-(3-((1-(4,5-dimethylpyridin-2-yl)azetidin-3-yl)oxy)-4-methoxyphenyl)-3-((R)-1-hydroxyethyl)-3-methylpyrrolidin-1-yl)-2,3-dihydroxypropan-1-one]	–	63%	1.81 nM
0.95 nM	645 ng·h/mL	314 ng/mL	15 min	1.9 nM	0.50	95.3 ng·h/mL	40.4 ng/mL	19.8 min	1640 ng·h/mL	413 ng/mL	49.8 min	COc1ccc([C@@H]2CN(C(=O)[C@@H](O)CO)C[C@@]2(C)[C@@H](C)O)cc1OC1CN(c2cc(C)c(Cl)cn2)C1 [Compound 010, (S)-1-((3S,4S)-4-(3-((1-(5-chloro-4-methylpyridin-2-yl)azetidin-3-yl)oxy)-4-methoxyphenyl)-3-((R)-1-hydroxyethyl)-3-methylpyrrolidin-1-yl)-2,3-dihydroxypropan-1-one]	47.6%	65.4%	1.05 nM
1.18 nM	215 ng·h/mL	186 ng/mL	15 min	0.75 nM	1.57	410 ng·h/mL	221 ng/mL	19.8 min	–	–	–	CCOc1ccc(N2CC(Oc3cc([C@@H]4CN(C(=O)[C@@H](O)CO)C[C@@]4(C)[C@@H](C)O)ccc3OC)C2)nc1 [Compound 022, (S)-1-((3S,4S)-4-(3-((1-(5-ethoxypyridin-2-yl)azetidin-3-yl)oxy)-4-methoxyphenyl)-3-((R)-1-hydroxyethyl)-3-methylpyrrolidin-1-yl)-2,3-dihydroxypropan-1-one]	60.7%	–	1.01 nM
